Our source for the % of control, % of inhibition and dTM values is ChEMBL document CHEMBL5465560, “Selectivity Literature for EUbOPEN Chemogenomic Library” (2024).

Assay [1] has as its target Serine/threonine-protein kinase PAK 3 (Homo sapiens) (UniProt O75914). Description: Selectivity interaction (ProQinase) EUB0000171b PAK3.
The target of assay [2] is Serine/threonine-protein kinase OSR1 (Homo sapiens) (UniProt O95747). Description: Selectivity interaction (ActivX KiNativ screen (kinase selectivity in THP-1 cell lysates)) EUB0000639a OXSR1. In kind it is subcellular. As to conditions: lysate.
Chain of Serine/threonine-protein kinase OSR1 (Homo sapiens) (O95747 2-527 limits assumed): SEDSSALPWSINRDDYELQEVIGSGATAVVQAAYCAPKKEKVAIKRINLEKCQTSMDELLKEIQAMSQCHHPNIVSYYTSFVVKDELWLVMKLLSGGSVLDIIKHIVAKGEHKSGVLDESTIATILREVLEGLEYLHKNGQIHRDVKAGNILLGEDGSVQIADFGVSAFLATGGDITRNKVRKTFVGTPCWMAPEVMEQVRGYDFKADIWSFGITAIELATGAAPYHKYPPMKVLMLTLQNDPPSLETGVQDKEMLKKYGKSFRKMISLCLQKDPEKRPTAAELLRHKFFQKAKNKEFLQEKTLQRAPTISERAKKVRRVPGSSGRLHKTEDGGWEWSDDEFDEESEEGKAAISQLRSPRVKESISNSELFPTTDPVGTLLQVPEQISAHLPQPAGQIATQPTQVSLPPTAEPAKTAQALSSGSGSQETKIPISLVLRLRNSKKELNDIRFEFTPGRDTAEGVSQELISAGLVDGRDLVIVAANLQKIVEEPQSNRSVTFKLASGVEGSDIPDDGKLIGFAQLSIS
Assay [3] concerns the target Ephrin type-A receptor 2 (Homo sapiens) (UniProt P29317). The assay is described as follows: Selectivity interaction (Kinase panel (DSF assay)) EUB0001559a EPHA2. For orientation: DSF heats the sample and reads unfolding from a dye or from intrinsic fluorescence.
The target of assay [4] is T1, Serine/threonine-protein kinase DCLK1 (Homo sapiens) (UniProt O15075).
T1 sequence (whole entry): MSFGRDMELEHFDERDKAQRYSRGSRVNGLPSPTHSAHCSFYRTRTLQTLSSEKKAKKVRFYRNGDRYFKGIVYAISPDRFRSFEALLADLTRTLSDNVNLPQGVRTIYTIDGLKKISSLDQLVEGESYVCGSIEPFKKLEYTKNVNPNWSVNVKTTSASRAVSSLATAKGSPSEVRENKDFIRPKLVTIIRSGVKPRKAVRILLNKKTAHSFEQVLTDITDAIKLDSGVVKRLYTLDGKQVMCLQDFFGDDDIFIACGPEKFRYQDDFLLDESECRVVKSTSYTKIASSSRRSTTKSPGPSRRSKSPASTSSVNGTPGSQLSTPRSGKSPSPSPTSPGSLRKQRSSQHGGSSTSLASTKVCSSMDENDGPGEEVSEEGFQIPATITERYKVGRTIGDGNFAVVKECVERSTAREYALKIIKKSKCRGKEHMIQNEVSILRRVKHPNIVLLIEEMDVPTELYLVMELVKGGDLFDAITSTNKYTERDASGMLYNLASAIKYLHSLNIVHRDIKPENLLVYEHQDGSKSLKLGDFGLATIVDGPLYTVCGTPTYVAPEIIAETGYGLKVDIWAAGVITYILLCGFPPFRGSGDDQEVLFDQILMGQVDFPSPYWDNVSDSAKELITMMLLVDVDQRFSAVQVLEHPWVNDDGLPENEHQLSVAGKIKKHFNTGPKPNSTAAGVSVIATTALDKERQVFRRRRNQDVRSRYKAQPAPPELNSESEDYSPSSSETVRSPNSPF
The assay is described as follows: Selectivity interaction (Kinase panel (DSF assay)) EUB0001559a DCLK1.

Assay [5] deals with T2, Cyclin-dependent kinase-like 5 (Homo sapiens) (UniProt O76039).
T2 sequence (whole entry): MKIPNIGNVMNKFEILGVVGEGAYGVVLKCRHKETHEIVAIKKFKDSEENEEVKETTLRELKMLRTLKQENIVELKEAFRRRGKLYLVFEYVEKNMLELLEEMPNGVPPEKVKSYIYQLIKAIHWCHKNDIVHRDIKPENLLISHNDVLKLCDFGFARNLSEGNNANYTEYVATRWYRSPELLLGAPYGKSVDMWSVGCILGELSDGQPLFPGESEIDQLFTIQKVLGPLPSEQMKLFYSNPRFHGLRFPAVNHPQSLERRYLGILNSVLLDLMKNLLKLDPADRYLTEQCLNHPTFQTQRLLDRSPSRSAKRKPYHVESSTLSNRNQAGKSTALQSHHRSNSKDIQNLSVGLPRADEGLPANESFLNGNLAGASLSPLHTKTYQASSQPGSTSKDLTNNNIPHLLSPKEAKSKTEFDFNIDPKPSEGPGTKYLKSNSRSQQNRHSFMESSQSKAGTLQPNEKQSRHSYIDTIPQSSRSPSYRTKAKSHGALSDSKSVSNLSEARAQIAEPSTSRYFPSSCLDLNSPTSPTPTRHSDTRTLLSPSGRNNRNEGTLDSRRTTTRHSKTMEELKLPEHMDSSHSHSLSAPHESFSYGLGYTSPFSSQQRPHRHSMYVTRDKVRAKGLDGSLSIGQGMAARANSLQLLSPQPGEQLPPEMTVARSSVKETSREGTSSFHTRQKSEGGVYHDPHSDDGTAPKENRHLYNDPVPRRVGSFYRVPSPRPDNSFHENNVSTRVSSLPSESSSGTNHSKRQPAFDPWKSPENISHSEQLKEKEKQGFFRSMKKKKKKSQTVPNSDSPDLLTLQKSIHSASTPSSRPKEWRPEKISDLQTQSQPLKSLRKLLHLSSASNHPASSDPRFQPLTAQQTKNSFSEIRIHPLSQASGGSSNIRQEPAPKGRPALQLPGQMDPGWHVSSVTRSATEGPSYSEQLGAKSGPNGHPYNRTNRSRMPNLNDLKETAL
The assay is described as follows: Selectivity interaction (KinomeScan (DiscoverX)) EUB0001619a CDKL5. As to conditions: at 1 µM.

Assay [6] addresses T3, Serine/threonine-protein kinase PLK4 (Homo sapiens) (UniProt O00444).
T3 sequence (whole entry): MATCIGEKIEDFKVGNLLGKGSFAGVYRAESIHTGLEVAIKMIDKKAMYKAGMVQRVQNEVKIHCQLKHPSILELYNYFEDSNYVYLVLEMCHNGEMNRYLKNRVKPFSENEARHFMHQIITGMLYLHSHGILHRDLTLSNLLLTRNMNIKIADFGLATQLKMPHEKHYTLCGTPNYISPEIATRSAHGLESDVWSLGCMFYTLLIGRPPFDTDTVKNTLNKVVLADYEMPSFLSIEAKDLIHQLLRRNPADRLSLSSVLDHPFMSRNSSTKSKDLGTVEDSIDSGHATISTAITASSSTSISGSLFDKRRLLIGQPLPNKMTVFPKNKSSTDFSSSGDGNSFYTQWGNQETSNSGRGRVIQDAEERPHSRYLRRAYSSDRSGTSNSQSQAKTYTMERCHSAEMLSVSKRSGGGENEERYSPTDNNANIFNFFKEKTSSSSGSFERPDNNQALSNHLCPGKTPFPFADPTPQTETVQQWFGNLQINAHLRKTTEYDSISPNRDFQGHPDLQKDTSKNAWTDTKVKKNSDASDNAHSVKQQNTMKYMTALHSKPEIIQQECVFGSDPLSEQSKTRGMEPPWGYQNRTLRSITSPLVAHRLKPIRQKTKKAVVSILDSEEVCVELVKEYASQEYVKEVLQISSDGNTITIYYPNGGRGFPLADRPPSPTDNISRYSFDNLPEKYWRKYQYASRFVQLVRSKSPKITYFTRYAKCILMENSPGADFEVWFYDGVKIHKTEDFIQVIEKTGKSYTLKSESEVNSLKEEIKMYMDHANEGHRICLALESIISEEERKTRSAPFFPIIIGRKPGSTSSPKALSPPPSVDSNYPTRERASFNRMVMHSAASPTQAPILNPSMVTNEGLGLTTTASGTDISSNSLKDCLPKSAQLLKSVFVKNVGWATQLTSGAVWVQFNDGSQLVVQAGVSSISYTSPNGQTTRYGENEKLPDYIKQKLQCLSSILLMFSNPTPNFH
Description: Selectivity interaction (KinomeScan (DiscoverX)) EUB0001619a PLK4. Conditions: at 1 µM.

Chain of Serine/threonine-protein kinase PAK 3 (Homo sapiens) (O75914 whole entry, looked up): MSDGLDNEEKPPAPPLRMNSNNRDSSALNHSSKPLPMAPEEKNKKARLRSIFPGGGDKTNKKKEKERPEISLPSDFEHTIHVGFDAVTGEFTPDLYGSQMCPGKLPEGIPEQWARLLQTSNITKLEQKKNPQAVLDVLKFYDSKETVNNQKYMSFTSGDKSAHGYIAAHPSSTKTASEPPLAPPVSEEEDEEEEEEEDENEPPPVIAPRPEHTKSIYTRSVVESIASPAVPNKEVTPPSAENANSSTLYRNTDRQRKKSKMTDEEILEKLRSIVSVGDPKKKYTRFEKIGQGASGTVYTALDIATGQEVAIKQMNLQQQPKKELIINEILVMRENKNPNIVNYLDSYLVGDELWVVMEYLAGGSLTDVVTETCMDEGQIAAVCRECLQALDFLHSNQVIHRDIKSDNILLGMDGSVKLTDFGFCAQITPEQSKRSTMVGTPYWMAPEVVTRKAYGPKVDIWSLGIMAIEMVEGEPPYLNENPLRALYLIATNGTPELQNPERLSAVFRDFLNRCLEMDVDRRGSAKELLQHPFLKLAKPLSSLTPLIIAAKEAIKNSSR
Chain of Ephrin type-A receptor 2 (Homo sapiens) (P29317 whole entry): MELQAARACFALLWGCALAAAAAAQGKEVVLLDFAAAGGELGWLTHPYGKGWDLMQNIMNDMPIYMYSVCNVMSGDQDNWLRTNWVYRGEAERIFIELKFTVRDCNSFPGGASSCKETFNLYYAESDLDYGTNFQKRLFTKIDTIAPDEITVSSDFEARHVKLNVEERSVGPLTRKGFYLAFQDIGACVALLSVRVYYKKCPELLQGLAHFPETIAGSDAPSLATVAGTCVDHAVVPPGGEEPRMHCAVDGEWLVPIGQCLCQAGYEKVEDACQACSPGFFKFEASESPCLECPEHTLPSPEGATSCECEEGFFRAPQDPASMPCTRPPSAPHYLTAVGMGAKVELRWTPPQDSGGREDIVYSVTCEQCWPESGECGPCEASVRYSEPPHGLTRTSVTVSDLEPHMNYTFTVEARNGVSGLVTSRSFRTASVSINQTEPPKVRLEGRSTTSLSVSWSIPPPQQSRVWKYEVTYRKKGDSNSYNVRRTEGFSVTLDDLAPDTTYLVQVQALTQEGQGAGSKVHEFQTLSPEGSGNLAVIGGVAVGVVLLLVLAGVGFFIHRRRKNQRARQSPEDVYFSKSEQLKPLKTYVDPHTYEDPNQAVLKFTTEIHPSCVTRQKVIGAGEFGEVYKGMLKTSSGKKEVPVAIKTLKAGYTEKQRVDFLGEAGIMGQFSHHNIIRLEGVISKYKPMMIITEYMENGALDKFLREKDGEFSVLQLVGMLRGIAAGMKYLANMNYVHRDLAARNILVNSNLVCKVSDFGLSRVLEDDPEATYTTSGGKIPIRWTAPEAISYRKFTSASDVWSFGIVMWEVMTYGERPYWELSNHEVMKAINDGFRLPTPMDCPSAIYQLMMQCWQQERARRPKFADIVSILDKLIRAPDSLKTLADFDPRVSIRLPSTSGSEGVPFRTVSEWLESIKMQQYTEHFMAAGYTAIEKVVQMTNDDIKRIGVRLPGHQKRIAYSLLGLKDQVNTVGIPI

With `C=CC(=O)Nc1cccc(C(=O)Nc2ccc(Nc3cc(-c4[nH]c(SC)nc4C)ccn3)cc2)c1`, the % of control in assay [1] (at 1 µM) amounted to 98%; in assay [1] (at 5 µM), 83%.

Take `CC[C@@H]1[C@H](F)C(=O)N[C@@H]1COc1nccc2cc(C(N)=O)c(OC)cc12` [ZIMLOVISERTIB]: the % of inhibition in assay [2] (at 0.01 µM) is -18.1%; in assay [2] (at 0.04 µM), -9.1%; in assay [2] (at 0.2 µM), -3%; in assay [2] (at 1 µM), -10.3%; in assay [2] (at 5 µM) it was 16.3%.

On to `CN(C(=O)c1cnn2cccnc12)c1cc2c(cc1N1CCOCC1)C(=O)N(C[C@@H](F)C(C)(C)O)C2`, for which the dTM is -0.4 K in assay [3] and 0.8 K in assay [4].

`N#Cc1cccc(-c2c[nH]c3ncnc(N4CCOCC4)c23)c1`: the values for the % of control in assay [5] and in assay [6] were 100% and 33%, respectively.
